Target: V600E mutated B-RAF (Homo sapiens, UniProt P15056, V600E)
Assay: In vitro assay for inhibition of mutant B-RAF kinase (recombinant V600E B-RAF, MEK (K97R) substrate)
Assay type: biochemical
Settings: 10 nM recombinant V600E B-RAF, 1 μM MEK (K97R) substrate; class symbols; read-out: IC50 (μM) V600E B-Raf
Experimental: (§1) The ability of compounds described herein to inhibit RAF kinase activity was determined from biochemical kinase assays using recombinant RAF proteins as known in the art.
(§2) Solutions of varying concentrations of test compounds or vehicle were added to 10 nM recombinant wild-type B-RAF or V600E mutated B-RAF proteins incubated in the presence of different concentrations of ATP and 1 μM MEK (K97R) as substrate, as previously described (Wilhelm, S. M., et al., Cancer Res., 64: 7099-7109, 2004; Mason, C. S., et al., EMBO J. 18: 2137-2148, 1999; Marais, R., et al., J. Biol. Chem., 272: 4378-4383, 1997). At least triplicate determinations for each individual test compound concentration were made and data plotted as mean±standard deviation relative to the control vehicle.

Chain of V600E mutated B-RAF (P15056 whole entry V600E): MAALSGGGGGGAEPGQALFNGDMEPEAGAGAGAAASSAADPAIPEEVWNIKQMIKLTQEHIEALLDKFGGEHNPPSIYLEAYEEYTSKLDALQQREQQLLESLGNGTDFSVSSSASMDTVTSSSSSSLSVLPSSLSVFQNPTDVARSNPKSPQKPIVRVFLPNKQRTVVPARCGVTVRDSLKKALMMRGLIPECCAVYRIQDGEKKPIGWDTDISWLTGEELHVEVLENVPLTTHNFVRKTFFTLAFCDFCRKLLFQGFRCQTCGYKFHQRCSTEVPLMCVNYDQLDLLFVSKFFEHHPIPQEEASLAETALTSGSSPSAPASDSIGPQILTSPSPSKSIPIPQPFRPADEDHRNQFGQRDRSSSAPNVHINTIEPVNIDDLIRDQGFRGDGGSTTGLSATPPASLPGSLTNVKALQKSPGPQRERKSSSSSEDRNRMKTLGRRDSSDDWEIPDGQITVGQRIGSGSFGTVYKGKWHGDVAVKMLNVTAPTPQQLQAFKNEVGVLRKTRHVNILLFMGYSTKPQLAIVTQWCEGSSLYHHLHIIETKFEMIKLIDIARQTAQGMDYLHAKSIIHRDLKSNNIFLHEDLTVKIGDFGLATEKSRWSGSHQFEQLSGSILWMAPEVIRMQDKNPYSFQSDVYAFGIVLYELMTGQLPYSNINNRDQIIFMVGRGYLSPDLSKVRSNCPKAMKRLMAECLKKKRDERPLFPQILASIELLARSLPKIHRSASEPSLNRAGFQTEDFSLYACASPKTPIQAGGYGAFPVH

| IC50 [µM] | Structure (SMILES) |
| --- | --- |
| 0.1 to 1 | O=C(O)c1cccc(-c2[nH]c(-c3ccccc3)nc2-c2ccncc2)c1 [Example 1, 3-(2-phenyl-4-(pyridin-4-yl)-1H-imidazol-5-yl)benzoic acid] |
| 0.1 to 1 | O=C(O)c1cccc(-c2cn(-c3ccccc3)nc2-c2ccncc2)c1 [Example 3, 3-(1-phenyl-3-(pyridin-4-yl)-1H-pyrazol-4-yl)benzoic acid] |
| 1 to 10 | CCS(=O)(=O)Nc1cccc(-c2[nH]c(-c3ccccc3)nc2-c2ccncc2)c1 [Example 4, N-(3-(2-phenyl-4-(pyridin-4-yl)-1H-imidazol-5-yl)phenyl)ethanesulfonamide] |
| 1 to 10 | CCCS(=O)(=O)Nc1cccc(-c2[nH]c(-c3ccccc3)nc2-c2ccncc2)c1 [Example 5, N-(3-(2-phenyl-4-(pyridin-4-yl)-1H-imidazol-5-yl)phenyl)propane-1-sulfonamide] |
| 0.1 to 1 | O=C(O)c1cc(F)cc(-c2[nH]c(-c3ccccc3)nc2-c2ccncc2)c1 [Example 6, 3-fluoro-5-(2-phenyl-4-(pyridin-4-yl)-1H-imidazol-5-yl)benzoic acid] |
| 0.1 to 1 | O=C(O)c1cc(-c2[nH]c(-c3ccccc3)nc2-c2ccncc2)ccc1F [Example 7, 2-fluoro-5-(2-phenyl-4-(pyridin-4-yl)-1H-imidazol-5-yl)benzoic acid] |
| 0.1 to 1 | O=C(O)c1cccc(-c2[nH]c(-c3ccccc3)nc2-c2ccncc2)c1F [Example 8, 2-fluoro-3-(2-phenyl-4-(pyridin-4-yl)-1H-imidazol-5-yl)benzoic acid] |
| 1 to 10 | O=C(O)c1ccc(F)c(-c2[nH]c(-c3ccccc3)nc2-c2ccncc2)c1 [Example 9, 4-fluoro-3-(2-phenyl-4-(pyridin-4-yl)-1H-imidazol-5-yl)benzoic acid] |
| < 0.1 | O=C(O)c1cc(-c2[nH]c(-c3ccccc3)nc2-c2ccncc2)ccc1Cl [Example 10, 2-chloro-5-(2-phenyl-4-(pyridin-4-yl)-1H-imidazol-5-yl)benzoic acid] |
| 0.1 to 1 | CS(=O)(=O)Nc1cc(-c2[nH]c(-c3ccccc3)nc2-c2ccncc2)ccc1Cl [Example 12, N-(2-chloro-5-(2-phenyl-4-(pyridin-4-yl)-1H-imidazol-5-yl)phenyl)methanesulfonamide] |
| 0.1 to 1 | O=C(O)c1cccc(-c2nn(-c3ccccc3)cc2-c2ccncc2)c1 [Example 13, 3-(1-phenyl-4-(pyridin-4-yl)-1H-pyrazol-3-yl)benzoic acid] |
| 0.1 to 1 | O=C(O)c1cc(Cl)cc(-c2[nH]c(-c3ccccc3)nc2-c2ccncc2)c1 [Example 14, 3-chloro-5-(2-phenyl-4-(pyridin-4-yl)-1H-imidazol-5-yl)benzoic acid] |
| < 0.1 | O=C(O)c1cc(-c2cn(-c3ccccc3)nc2-c2ccncc2)ccc1Cl [Example 15, 2-chloro-5-(1-phenyl-3-(pyridin-4-yl)-1H-pyrazol-4-yl)benzoic acid] |
| 1 to 10 | NC(=O)c1cccc(-c2[nH]c(-c3ccccc3)nc2-c2ccncc2)c1 [Example 21, 3-(2-phenyl-4-(pyridin-4-yl)-1H-imidazol-5-yl)benzamide] |
| 0.1 to 1 | Cc1ccc(-c2[nH]c(-c3ccccc3)nc2-c2ccncc2)cc1C(=O)O [Example 27, 2-methyl-5-(2-phenyl-4-(pyridin-4-yl)-1H-imidazol-5-yl)benzoic acid] |

Same assay, conditions: 10 nM recombinant V600E B-RAF, 1 μM MEK (K97R) substrate; read-out: BRAF-V600E IC50

| IC50 [µM] | Structure (SMILES) |
| --- | --- |
| 0.13 | O=C(O)c1cccc(-c2[nH]c(-c3ccccc3)nc2-c2ccncc2)c1 [Example 1, 3-(2-phenyl-4-(pyridin-4-yl)-1H-imidazol-5-yl)benzoic acid] |

Target: wild-type B-RAF (Homo sapiens, UniProt P15056)
Assay: In vitro assay for inhibition of B-RAF kinase (recombinant wild-type B-RAF, MEK (K97R) substrate)
Assay type: biochemical
Settings: 10 nM recombinant wild-type B-RAF, 1 μM MEK (K97R) substrate; read-out: BRAF IC50
Experimental: as §1
as §2, with “A-RAF, wild-type B-RAF,” for “B-RAF”, “wild-type C-RAF” for “V600E mutated B-RAF”
as §2

Chain of wild-type B-RAF (P15056 whole entry): as the sequence (P15056 whole entry V600E) above, with E600V counted along it

| IC50 [nM] | Structure (SMILES) |
| --- | --- |
| 3100 | O=C(O)c1cccc(-c2[nH]c(-c3ccccc3)nc2-c2ccncc2)c1 [Example 1, 3-(2-phenyl-4-(pyridin-4-yl)-1H-imidazol-5-yl)benzoic acid] |
| 800 | CS(=O)(=O)Nc1cccc(-c2[nH]c(-c3ccccc3)nc2-c2ccncc2)c1 [Example 2, N-(3-(2-phenyl-4-(pyridin-4-yl)-1H-imidazol-5-yl)phenyl)methanesulfonamide] |
